Reference: US10450378B2, “Cytotoxic and anti-mitotic compounds, and methods of using the same” (priority 2014, dated 2019)
Where two headings read alike, the source gives them in different places.

Key:
Jurkat cell line = assay: Cytotoxicity of compounds of Formula I, Example 3 (CellTiter-Glo); type: cell-based, Human; settings: for EC50: Homo sapiens, 72 h
Description: Compounds were tested on Jurkat and HCC1954 cell lines to assess their cytotoxicity. Compounds were titrated 1:3 starting at various concentrations (30 nM to 1000 nM). Control cytotoxin HTI-286 (see, e.g., U.S. Pat. No. 7,579,323) was also titrated 1:3 across starting with a 30 nM concentration. Plates were incubated for 3 days. Cell viability was quantified using 30 μL/well of 1× CellTiter-Glo reagent.
Each cell line was grown in its respective growth medium until seeding day. Cells were removed from their culture vessels and the resulting cell suspension was counted using the ViCell. Cells were then diluted in their growth medium to 25000/mL such that 100 μL/well=2500 cells/well. Each cell line was seeded in the inner 60 wells of 96-well black walled TC plates, outer wells filled with water. HCC1954 were seeded a day prior to assay set up. Cytotoxins were diluted as described below a 5× dose-response of each compound was prepared using RPMI+10% FBS in a deep-well 96-well plate. This “master” dilution plate was used for each cell line. 25 μL of the 5× dose responses was spiked into each cell line in triplicate. The plates were returned to the incubator and were incubated for 3 nights. After the 3 nights, cell viability was quantified using 30 μL/well of 1× CellTiter-glo reagent. After at least 10 minutes of incubation, the luminescence was measured using the SpectraMax (500 ms integration).

[1] = test system: Human T-cell leukemia cell line Jurkat; assay: Cellular cytotoxicity of compounds of Formula I, Example 3.1; type: cell-based; settings: for EC50: Homo sapiens, Jurkat, read-out: EC50 (nM) Jurkat
Description: (§1) Compounds were tested on one or more of Human T-cell leukemia cell line Jurkat (ATCC: TIB-152); Human breast cancer cell lines HCC1954 (ATCC: CRL-2338) and JIMT-1 (DSMZ: ACC 589); Human Pancreatic cell line BxPC-3 (ATCC: CRL.1687), Human ovarian adenocarcinoma cell line SK-OV-3 (ATCC: HTB-77) and Human gastric carcinoma cell line NCI-N87 (ATCC: CRL. 5822); to assess their cytotoxicity.
(§2) Briefly, cells were obtained from commercial sources and cultured as described in the product sheet provided. Cells were removed from their culture vessels and the resulting cell suspension was counted using a ViCell (Beckman Coulter), then seeded at 25,000 cells/mL (2,500 cells/well) in Costar 3904 black walled, flat bottomed 96-well plates (cells were seeded in the inner 60 wells of 96-well TC plates, and outer edge wells filled with water). Adherent cell lines were incubated for one night at 37° C./5% CO2 atmosphere to allow the cells to attach to the microtiter plate surface, while suspension (Jurkat) cells were plated immediately before use. Cytotoxins were dissolved and serially diluted in dimethyl sulfoxide and then the solutions were added to complete growth medium at five-times the desired maximum final concentration. The cytotoxins were then titrated in growth medium, normally 1:3, over eight steps. A control with no test article present (growth medium alone) was included on each microtiter plate in sextuplicate. The prepared toxin titrations were added (25 μL/well) in triplicate to each cell line assayed. The cells and titrations were incubated at 37° C./5% CO2 for three nights (Jurkat) and five nights (all other cell lines). After the incubation, cell viability was measured using CellTiter-Glo® by adding 30 μL of prepared CellTiter-Glo® reagent to each assay well. The mixtures were incubated for at least twenty minutes in the dark prior to measuring emitted luminescence using a microplate luminometer (500 ms integration time). The collected relative luminescence units (RLU) were converted to % cytotoxicity using the growth medium alone control mentioned above (% Cytotoxicity=1-[well RLU/average medium alone control RLU]×100%).

[2] = test system: Human Pancreatic cell line BxPC-3; assay: as above; type: cell-based; settings: five nights, CellTiter-Glo
Description: as §1, §2

[3] = test system: Human gastric carcinoma cell line NCI-N87; assay: as above; type: cell-based; settings: five nights, CellTiter-Glo
Description: as §1, §2

[4] = 3 days incubation, CellTiter-Glo, read-out: EC50

SMILES | EC50 (Jurkat cell line; [4]) [nM] | EC50 ([1]; three nights, CellTiter-Glo) [nM] | EC50 [1] [nM] | EC50 [2] [nM] | EC50 [3] [nM] | further results
CC[C@H](C)[C@@H]([C@@H](CC(=O)N1CCC[C@H]1[C@H](OC)[C@@H](C)C(=O)NS(=O)(=O)Cc1ccc(NC(=O)C(F)(F)F)cc1)OC)N(C)C(=O)[C@@H](NC(=O)[C@H](C(C)C)N(C)C)C(C)C [Compound 7, (S)-2-((S)-2-(Dimethylamino)-3-methylbutanamido)-N-((3R,4S,5S)-3-methoxy-1-((S)-2-((1R,2R)-1-methoxy-2-methyl-3-oxo-3-((4-(2,2,2-trifluoroacetamido)phenyl)methylsulfonamido)propyl)pyrrolidin-1-yl)-5-methyl-1-oxoheptan-4-yl)-N,3-dimethylbutanamide] | 29.9 | 29.9 |  |  |  | 
CN[C@H](C(=O)N[C@H](C(=O)N(C)[C@H](/C=C(\C)C(=O)O)C(C)C)C(C)(C)C)C(C)(C)c1ccccc1 [HTI-286, reference compound] |  |  |  |  |  | Killing by control cytotoxin (Jurkat cell line; titrated 1:3 starting with 30 nM): successfully killed Jurkats at an expected concentration; Killing by control cytotoxin ([1]; stated for all cell lines of Example 3.1): successfully killed all cell lines at an expected concentration
CC[C@H](C)[C@@H]([C@@H](CC(=O)N1CCC[C@H]1[C@H](OC)[C@@H](C)C(=O)N[C@@H](Cc1ccccc1)C(=O)NS(=O)(=O)c1ccc(NC(=O)C(F)(F)F)cc1)OC)N(C)C(=O)[C@@H](NC(=O)[C@H](C(C)C)N(C)C)C(C)C [Compound 10, (S)-2-((S)-2-(Dimethylamino)-3-methylbutanamido)-N-((3R,4S,5S)-3-methoxy-1-((S)-2-((1R,2R)-1-methoxy-2-methyl-3-oxo-3-((S)-1-oxo-3-phenyl-1-(4-(2,2,2-trifluoroacetamido)phenylsulfonamido)propan-2-ylamino)propyl)pyrrolidin-1-yl)-5-methyl-1-oxoheptan-4-yl)-N,3-dimethylbutanamide] |  |  | 45.3 |  |  | EC50 (Jurkat cell line): 45.3 nM
CC[C@H](C)[C@@H]([C@@H](CC(=O)N1CCC[C@H]1[C@H](OC)[C@@H](C)C(=O)N[C@@H](Cc1ccccc1)C(=O)NS(=O)(=O)Cc1ccc(NC(=O)C(F)(F)F)cc1)OC)N(C)C(=O)[C@@H](NC(=O)[C@H](C(C)C)N(C)C)C(C)C [Compound 13, (S)-2-((S)-2-(Dimethylamino)-3-methylbutanamido)-N-((3R,4S,5S)-3-methoxy-1-((S)-2-((1R,2R)-1-methoxy-2-methyl-3-oxo-3-((S)-1-oxo-3-phenyl-1-(4-(2,2,2-trifluoroacetamido)phenylmethylsulfonamido)propan-2-ylamino)propyl)pyrrolidin-1-yl)-5-methyl-1-oxoheptan-4-yl)-N,3-dimethylbutanamide] |  |  | 20.9 |  |  | EC50 (Jurkat cell line): 20.9 nM
CC[C@H](C)[C@@H]([C@@H](CC(=O)N1CCC[C@H]1[C@H](OC)[C@@H](C)C(=O)NS(=O)(=O)c1ccc(NC(=O)C(F)(F)F)cc1)OC)N(C)C(=O)[C@@H](NC(=O)[C@H](C(C)C)N(C)C)C(C)C [Compound 4, (S)-2-((S)-2-(Dimethylamino)-3-methylbutanamido)-N-((3R,4S,5S)-3-methoxy-1-((S)-2-((1R,2R)-1-methoxy-2-methyl-3-oxo-3-(4-(2,2,2-trifluoroacetamido)phenylsulfonamido)propyl)pyrrolidin-1-yl)-5-methyl-1-oxoheptan-4-yl)-N,3-dimethylbutanamide] | 18.1 | 18.1 |  |  |  | 
CC[C@H](C)[C@@H]([C@@H](CC(=O)N1CCC[C@H]1[C@H](OC)[C@@H](C)C(=O)N[C@@H](Cc1ccccc1)C(=O)NS(=O)(=O)c1ccc(N)cc1)OC)N(C)C(=O)[C@@H](NC(=O)[C@H](C(C)C)N(C)C)C(C)C [Compound 11, (S)-N-((3R,4S,5S)-1-((S)-2-((1R,2R)-3-((S)-1-(4-Aminophenylsulfonamido)-1-oxo-3-phenylpropan-2-ylamino)-1-methoxy-2-methyl-3-oxopropyl)pyrrolidin-1-yl)-3-methoxy-5-methyl-1-oxoheptan-4-yl)-2-((S)-2-(dimethylamino)-3-methylbutanamido)-N,3-dimethylbutanamide] | 52 | 52 |  |  |  | 
CC[C@H](C)[C@@H]([C@@H](CC(=O)N1CCC[C@H]1[C@H](OC)[C@@H](C)C(=O)NS(=O)(=O)c1ccc(C(=O)OC)cc1)OC)N(C)C(=O)[C@@H](NC(=O)[C@H](C(C)C)N(C)C)C(C)C [Compound 34, Methyl 4-(N-((2R,3R)-3-((S)-1-((3R,4S,5S)-4-((S)-2-((S)-2-(Dimethylamino)-3-methylbutanamido)-N,3-dimethylbutanamido)-3-methoxy-5-methylheptanoyl)pyrrolidin-2-yl)-3-methoxy-2-methylpropanoyl)sulfamoyl)benzoate] |  | > 100 |  | > 300 | > 300 | 
CC[C@H](C)[C@@H]([C@@H](CC(=O)N1CCC[C@H]1[C@H](OC)[C@@H](C)C(=O)N[C@@H](Cc1ccccc1)C(=O)NS(=O)(=O)Cc1ccc(CNC(=O)C(F)(F)F)cc1)OC)N(C)C(=O)[C@@H](NC(=O)[C@H](C(C)C)N(C)C)C(C)C [Compound 27, (S)-2-((S)-2-(Dimethylamino)-3-methylbutanamido)-N-((3R,4S,5S)-3-methoxy-1-((S)-2-((1R,2R)-1-methoxy-2-methyl-3-oxo-3-(((S)-1-oxo-3-phenyl-1-(((4-((2,2,2-trifluoroacetamido)methyl)phenyl)methyl)sulfonamido)propan-2-yl)amino)propyl)pyrrolidin-1-yl)-5-methyl-1-oxoheptan-4-yl)-N,3-dimethylbutanamide] |  |  | 24.2 | 19 | 17.4 | 
CC[C@H](C)[C@@H]([C@@H](CC(=O)N1CCC[C@H]1[C@H](OC)[C@@H](C)C(=O)NS(=O)(=O)Cc1ccc(CNC(=O)C(F)(F)F)cc1)OC)N(C)C(=O)[C@@H](NC(=O)[C@H](C(C)C)N(C)C)C(C)C [Compound 25, (S)-2-((S)-2-(Dimethylamino)-3-methylbutanamido)-N-((3R,4S,5S)-3-methoxy-1-((S)-2-((1R,2R)-1-methoxy-2-methyl-3-oxo-3-(((4-((2,2,2-trifluoroacetamido)methyl)phenyl)methyl)sulfonamido)propyl)pyrrolidin-1-yl)-5-methyl-1-oxoheptan-4-yl)-N,3-dimethylbutanamide] |  | 34.3 |  | > 100 | > 100 | 
CC[C@H](C)[C@@H]([C@@H](CC(=O)N1CCC[C@H]1[C@H](OC)[C@@H](C)C(=O)NS(=O)(=O)c1ccc(N)cc1)OC)N(C)C(=O)[C@@H](NC(=O)[C@@H](NC)C(C)(C)c1ccccc1)C(C)C [Compound 19, (S)-N-((3R,4S,5S)-1-((S)-2-((1R,2R)-3-((4-Aminophenyl)sulfonamido)-1-methoxy-2-methyl-3-oxopropyl)pyrrolidin-1-yl)-3-methoxy-5-methyl-1-oxoheptan-4-yl)-N,3-dimethyl-2-((S)-3-methyl-2-(methylamino)-3-phenylbutanamido)butanamide] |  | 2.2 |  | 10.2 | 12.8 | 
